# Test results published in US8455214B2, “Methods for determining chemotherapeutic agents targeting alpha-glucan pathways and uses thereof” (priority 2009, dated 2013).
# Like-named read-outs stand apart in the source and are kept apart here.
# Experiments:
# [1] = test system: M. smegmatis ΔglgE mutant; assay: Sensitivity of the M. smegmatis ΔglgE mutant toward mono- and disaccharides (growth on Middlebrook 7H10 agar); type: cell-based; settings: for growth of the mutant: glucose disaccharides
# Description: FIG. 2A-2F. Characterization of the M. smegmatis ΔglgE mutant. […] (B). Trehalose sensitivity of the ΔglgE mutant. […] (D) Trehalose sensitivity of the ΔglgB mutant. (E) M1P accumulation in the ΔglgE and ΔglgB mutants determined by TLC/autoradiography analysis of extracts from cells labeled with 14C-trehalose for the indicated time intervals. (F) Maltose accumulation in Δpep2 mutant strains determined by TLC/autoradiography analysis of cell extracts from cells labeled with 14C-trehalose for 30 min. In (B) and (D), equal dilutions of cultures were spotted onto Middlebrook 7H10 agar plates containing trehalose. Comp. refers to mutants complemented with the respective WT genes.
# The sensitivity was highly specific, since growth of the mutant was not inhibited by other glucose disaccharides like maltose or α,β-trehalose [α-D-glucopyranosyl-(1→1)-β-D-glucopyranoside].
# [2] = molecular target: Mtb GlgE (Mycobacterium tuberculosis, UniProt P9WQ17); type: biochemical; settings: for Km: read-out: Km^app
# Mtb GlgE, sequence (P9WQ17 whole entry): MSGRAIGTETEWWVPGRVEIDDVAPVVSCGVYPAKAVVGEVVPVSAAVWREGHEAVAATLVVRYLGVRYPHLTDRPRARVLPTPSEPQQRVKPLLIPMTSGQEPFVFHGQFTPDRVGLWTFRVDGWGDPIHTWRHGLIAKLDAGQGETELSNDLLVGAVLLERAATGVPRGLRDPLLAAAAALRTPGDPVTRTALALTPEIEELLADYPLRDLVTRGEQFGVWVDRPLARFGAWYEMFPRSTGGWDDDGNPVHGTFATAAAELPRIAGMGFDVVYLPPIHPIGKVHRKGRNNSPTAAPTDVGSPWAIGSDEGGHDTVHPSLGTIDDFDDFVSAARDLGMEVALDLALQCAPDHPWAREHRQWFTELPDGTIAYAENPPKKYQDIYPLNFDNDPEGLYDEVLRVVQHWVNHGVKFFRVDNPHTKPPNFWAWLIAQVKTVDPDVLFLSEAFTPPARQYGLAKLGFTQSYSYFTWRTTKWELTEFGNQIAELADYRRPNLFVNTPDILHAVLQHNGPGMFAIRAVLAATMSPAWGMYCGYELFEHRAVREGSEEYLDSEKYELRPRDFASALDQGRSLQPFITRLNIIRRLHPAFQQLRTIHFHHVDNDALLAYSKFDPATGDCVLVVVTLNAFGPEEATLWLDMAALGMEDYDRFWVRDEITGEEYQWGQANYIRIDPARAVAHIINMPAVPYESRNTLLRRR
# [3] = test system: Mtb WT; type: cell-based, Mycobacterium tuberculosis
# [4] = test system: trehalose synthase TreS; settings: reference 13; cited from earlier work
# [5] = test system: Mtb ΔtreS ΔglgE (pMV361::treS); type: cell-based, Mycobacterium tuberculosis; settings: in the presence of 5 mM VA; TLC
# [6] = test system: Mtb; settings: reference 14; cited from earlier work
# [7] = test system: M. smegmatis ΔglgB mutant; type: cell-based; settings: to a somewhat smaller extent than ΔglgE
# [8] = donor M1P with 1 mM maltohexaose
# [9] = acceptor maltohexaose with 1 mM M1P
molecule,measurement,setting,value
OC[C@H]1O[C@H](O[C@H]2[C@H](O)[C@@H](O)C(O)O[C@@H]2CO)[C@H](O)[C@@H](O)[C@@H]1O (mixture of isomers) [maltose],growth of the mutant,[1],not inhibited
"O=P(O)(O)O[C@H]1O[C@H](CO)[C@@H](O[C@H]2O[C@H](CO)[C@@H](O)[C@H](O)[C@H]2O)[C@H](O)[C@H]1O [M1P, α-D-glucopyranosyl(1→4)-α-D-glucopyranosyl 1-phosphate]",kcat^app,[2]; [8],1.26 ± 0.07 s⁻¹
same,Km,[2]; [8],0.25 ± 0.05 mM
"OCC1=C[C@@H](N[C@H]2C[C@H](CO)[C@@H](O[C@H]3O[C@@H](CO)[C@H](O)[C@@H](O)[C@@H]3O)[C@H](O)[C@H]2O)[C@H](O)[C@@H](O)[C@@H]1O [VA, Validamycin A]",tolerated concentration of the inhibitor,[3],10 mM
same,inhibition of TreS,[4],inhibit
same,M1P accumulation,[5],only low levels
O=P(O)(O)O [inorganic phosphate],phosphate converted to M1P,[2],~10%
same,Km,"[2]; inorganic phosphate, reverse reaction, estimated",6 ± 4 mM
NNC(=O)c1ccncc1 [isoniazid],1 mg/l expressed as multiple of the MIC,[6],20 times the MIC
"OC[C@H]1O[C@H](O[C@H]2O[C@H](CO)[C@@H](O)[C@H](O)[C@H]2O)[C@H](O)[C@@H](O)[C@@H]1O [trehalose, α-D-glucopyranosyl-(1→1)-α-D-glucopyranoside]",concentration that completely inhibited growth,[1],0.5 mM
same,growth of the mutant,[1],bacteriostatic growth arrest
same,sensitivity of the mutant,[7],sensitive
"OC[C@H]1O[C@@H](O[C@H]2O[C@H](CO)[C@@H](O)[C@H](O)[C@H]2O)[C@H](O)[C@@H](O)[C@@H]1O [α,β-trehalose, α-D-glucopyranosyl-(1→1)-β-D-glucopyranoside]",growth of the mutant,[1],not inhibited
O=P(O)(O)OC1OC(CO)C(OC2OC(CO)C(O)C(O)C2O)C(O)C1O (stereo not drawn) [β anomer of M1P],GlgE activity as donor,[2],no activity
maltohexaose,kcat^app,[2]; [9],7.5 ± 0.4 s⁻¹
same,Km,[2]; [9],13.3 ± 2.4 mM
same,kcat^app,[2]; acceptor maltohexaose with 5 mM M1P,15.4 ± 1.1 s⁻¹
same,Km,"[2]; acceptor maltohexaose with 5 mM M1P, pH 7.0, 37° C",35 ± 8 mM
